Test results taken from patent US10316050B2, “PT (IV) complexes containing 4,4′-disubstituted-2,2′-bipyridyl and their use in cancer therapy” (THE BOARD OF REGENTS OF THE NEVADA SYSTEM OF HIGHER …, priority 2014, dated 2019).
Like-named read-outs stand apart in the source and are kept apart here.

Key:
[1] = test system: HCC38 breast cancer cells; assay: MTS cell viability assay, HCC38; format: cell-based, human; conditions: read-out: EC50 (effective concentration that resulted in 50% cell viability)
Protocol: (§1) Human breast (HCC38, MCF-7, MDA-MB-231, SK-BR-3, T-47D, and ZR-75-1), lung (A549 and H520), and prostate (DU145 and PC-3) cancer cell lines were obtained from American Culture Type Collection (ATCC). The HCC38, MCF-7, MDA-MB-231, SK-BR-3, T-47D, ZR-75-1, and A549 cells were grown in MEM supplemented with 10% FBS, 25 mM HEPES buffer (pH 7.4), penicillin (100 U/mL), and streptomycin (100 μg/mL). The H520, DU145, and PC-3 cell lines were grown in RPMI-1640 supplemented with 10% FBS, 25 mM HEPES buffer (pH 7.4), penicillin (100 U/mL), and streptomycin (100 μg/mL). All cell lines were maintained at 37° C. in a humidified, 5% CO2 atmosphere.
(§2) Cells were cultured at a density of 2-3.5×10^3 cells per well in flat bottomed 96-well plates in 100 μL of complete growth medium and incubated for 2 days to reach ˜50% confluence. The cells were then treated with solvent or the appropriate drugs (CDDP stock was dissolved in 0.15 M NaCl, carboplatin stock was dissolved in 5% glucose, synthesized Pt(IV) complexes were dissolved in DMSO) for 1 hour, washed three times with 100 μL PBS, and incubated in 100 μL of fresh medium. After 2 days, the medium was replaced with 120 μL of medium containing CellTiter 96® Aqueous One Solution Reagent (MTS reagent) (Promega, Madison, Wis.). The cells were incubated at 37° C. for 4 hours and the cell viability was determined by measuring the absorbance at 490 nm using a Tecan Infinite M1000 microplate reader. The 48 h treatment was done in a similar manner, except the cells were not washed after treatment and the MTS reagent was immediately added. Viability of treated groups was calculated as a percent of control and graphed with GraphPad Prism.
(§3) The anti-proliferative activities of Pt(IV) complexes were determined in two lung (A549 and H520), two prostate (DU145 and PC-3), and six breast (HCC38, MCF-7, MDA-MB-231, SK-BR-3, T-47D, and ZR-75-1) cancer cell lines. The cells were treated with increasing concentrations of cisplatin (CDDP), carboplatin, or the Pt(IV) complexes for 1 or 48 hours, and the viability was measured using an MTS colorimetric cell proliferation assay. Graphs of the results are shown for DU145 (FIG. 8A), PC-3 (FIG. 8B), SK-BR-3 (FIG. 8C), ZR-75-1 (FIG. 8D), A549 (FIG. 8E), and MCF-7 (FIG. 8F).

[2] = test system: DU145 prostate cancer cells; format: cell-based, human; conditions: read-out: EC50 (effective concentration that resulted in 50% cell viability)
Protocol: as §1, §2, §3
(§4) The anti-proliferative activities of certain Pt(II) complexes were determined in DU145, PC-3, and SK-BR-3 cells. The cells were treated with increasing concentrations of cisplatin (CDDP) or the Pt(II) complexes for 1 or 48 hours, and the viability was measured using an MTS colorimetric cell proliferation assay.

[3] = test system: A549 lung cancer cells; assay: MTS cell viability assay, A549; format: cell-based, human; conditions: read-out: EC50 (effective concentration that resulted in 50% cell viability)
Protocol: as §1, §2, §3

[4] = test system: T-47D breast cancer cells; assay: MTS cell viability assay, T-47D; format: cell-based, human
Protocol: as §1, §2, §3

[5] = test system: PC-3 prostate cancer cells; assay: MTS cell viability assay, PC-3; format: cell-based, human; conditions: read-out: EC50 (effective concentration that resulted in 50% cell viability)
Protocol: as §1, §2, §3, §4

[6] = test system: ZR-75-1 breast cancer cells; assay: MTS cell viability assay, ZR-75-1; format: cell-based, human; conditions: read-out: EC50 (effective concentration that resulted in 50% cell viability)
Protocol: as §1, §2, §3

[7] = test system: MDA-MB-231 breast cancer cells; assay: MTS cell viability assay, MDA-MB-231; format: cell-based, human; conditions: read-out: EC50 (effective concentration that resulted in 50% cell viability)
Protocol: as §1, §2, §3

[8] = test system: MCF-7 breast cancer cells; assay: MTS cell viability assay, MCF-7; format: cell-based, human; conditions: read-out: EC50 (effective concentration that resulted in 50% cell viability)
Protocol: as §1, §2, §3

[9] = test system: SK-BR-3 breast cancer cells; assay: MTS cell viability assay, SK-BR-3; format: cell-based, human; conditions: read-out: EC50 (effective concentration that resulted in 50% cell viability)
Protocol: as §1, §2, §3, §4

[10] = test system: H520 lung cancer cells; assay: MTS cell viability assay, H520; format: cell-based, human; conditions: read-out: EC50 (effective concentration that resulted in 50% cell viability)
Protocol: as §1, §2, §3

[11] = Stability of stock solution in DMSO or ethanol; format: physicochemical; conditions: stock solution made in DMSO or ethanol
Protocol: (§5) It should be noted that while the solubility of the Pt(IV) complexes in organic solvents were increased compared to their Pt(II) precursors, they were still poorly soluble in water. Thus, Pt(IV)-1C to Pt(IV)-3C were limited to a highest concentration of 100 μM. […] Testing of Pt(IV)4C therefore was limited to 25 μM.

[12] = Solubility in DMSO and common organic solvents; format: physicochemical
Protocol: Coordination of the axial ligands to the Pt center improved the solubility of the complexes in common organic solvents. DMSO solutions of the Pt(IV) complexes with concentrations of 10 mM or higher were obtainable, whereas the Pt(II) can only be made at the highest concentration of 5 mM.

[13] = Solubility in water and culture medium; format: physicochemical; conditions: water
Protocol: as §5

[14] = Maximum tolerated dose study in a mouse model; format: in vivo; conditions: intraperitoneal administration, 12.5 mg/kg/day for three days
Protocol: As described herein, the platinum complexes provided herein can be used to reduce the viability of cancer cells. […] One of these compounds, Pt(II)-4C, was tested in vivo in a mouse model to determine the maximum tolerated dose. […] Here, a series of Pt(IV) derivatives having improved solubility in DMSO and, in some instances, increased activity compared to their Pt(II) counterparts is described.

[15] = 1 h treatment, Table 2, read-out: EC50 (effective concentration that resulted in 50% cell viability)
[16] = 48 h treatment, Table 4, read-out: EC50 (effective concentration that resulted in 50% cell viability)
[17] = ZR-75-1, 1 h treatment, Table 2
[18] = ZR-75-1, 48 h treatment, Table 4
[19] = MDA-MB-231, 1 h treatment, Table 2
[20] = MDA-MB-231, 48 h treatment, Table 4
[21] = SK-BR-3, 1 h treatment, Table 2
[22] = SK-BR-3, 48 h treatment, Table 4

[Pt(IV)Cl2(OAc)2(4,4′-dioctyloxy-2,2′-bipyridine)] [Pt(IV)-8C]
EC50 ([1]; HCC38, 1 h treatment, Table 3): 3 ± 0.6 µM | EC50 ([1]; HCC38, 48 h, Table 5): 1.6 ± 0.3 µM | EC50 ([2]; DU145, 1 h treatment, Table 3): 0.7 ± 0.3 µM | EC50 ([2]; DU145, 48 h, Table 5): 0.2 ± 0.1 µM | EC50 ([3]; A549, 1 h treatment, Table 3): 7 ± 0.4 µM | EC50 ([3]; A549, 48 h, Table 5): 3 ± 0.5 µM | EC50 ([4]; 1 h treatment, Table 3, read-out: EC50 (effective concentration that resulted in 50% cell viability)): 1.5 ± 0.5 µM | EC50 ([4]; 48 h, Table 5, read-out: EC50 (effective concentration that resulted in 50% cell viability)): 0.25 µM | EC50 ([5]; PC-3, 1 h treatment, Table 3): 1.2 ± 0.5 µM | EC50 ([5]; PC-3, 48 h, Table 5): 0.11 ± 0.02 µM | EC50 ([6]; ZR-75-1, 1 h treatment, Table 3): 3 ± 1 µM | EC50 ([6]; ZR-75-1, 48 h, Table 5): 1.3 ± 0.1 µM | EC50 ([7]; MDA-MB-231, 1 h treatment, Table 3): 2.1 ± 0.2 µM | EC50 ([7]; MDA-MB-231, 48 h, Table 5): 0.9 ± 0.3 µM | EC50 ([8]; MCF-7, 1 h treatment, Table 3): 4 ± 1 µM | EC50 ([8]; MCF-7, 48 h, Table 5): 1.3 ± 0.3 µM | EC50 ([9]; SK-BR-3, 1 h treatment, Table 3): 0.33 ± 0.05 µM | EC50 ([9]; SK-BR-3, 48 h, Table 5): 0.22 ± 0.03 µM | EC50 ([10]; H520, 1 h treatment, Table 3): 7 ± 5 µM | EC50 ([10]; H520, 48 h, Table 5): 1.2 ± 0.6 µM | stability of the structure in stock solution [11]: structure is stable

CCCCOc1ccnc(-c2cc(OCCCC)ccn2)c1.[Cl][Pt][Cl] [Pt(II)-4C]
EC50 ([1]; HCC38, 1 h treatment, Table 2): 12 ± 6 µM | EC50 ([1]; HCC38, 48 h treatment, Table 4): 7.3 ± 3 µM | EC50 ([2]; DU145, 1 h treatment, Table 2): 12 ± 8 µM | EC50 ([2]; DU145, 48 h treatment, Table 4): 5 ± 2 µM | solubility in DMSO and other common organic solvents (in words) [12]: only moderate solubility in common organic solvents | EC50 ([3]; A549, 1 h treatment, Table 2): 17 ± 1 µM | EC50 ([3]; A549, 48 h treatment, Table 4): 15.4 ± 0.5 µM | EC50 [4, 15]: 12 ± 7 µM | EC50 [4, 16]: 2.3 ± 0.4 µM | EC50 ([5]; PC-3, 1 h treatment, Table 2): 11 ± 2 µM | EC50 ([5]; PC-3, 48 h treatment, Table 4): 7.4 ± 0.5 µM | EC50 [6, 17]: 21 ± 2 µM | EC50 [6, 18]: 6 ± 0.9 µM | EC50 [7, 19]: 4 ± 3 µM | EC50 [7, 20]: 2.4 ± 0.6 µM | solubility in water (in words) [13]: poor solubility in water | EC50 ([8]; MCF-7, 1 h treatment, Table 2): 22 ± 2 µM | EC50 ([8]; MCF-7, 48 h treatment, Table 4): 13 ± 1 µM | survival of the animals [14]: survived for seven days | EC50 [9, 21]: 5 ± 4 µM | EC50 [9, 22]: 2.1 ± 0.2 µM | EC50 ([10]; H520, 1 h treatment, Table 2): 20 ± 1 µM | EC50 ([10]; H520, 48 h treatment, Table 4): 14 ± 6 µM

COc1ccnc(-c2cc(OC)ccn2)c1.[Cl][Pt][Cl] [Pt(II)-1C]
EC50 ([1]; HCC38, 1 h treatment, Table 2): 80 ± 20 µM | EC50 ([1]; HCC38, 48 h treatment, Table 4): 57 ± 2 µM | EC50 ([2]; DU145, 1 h treatment, Table 2): 40 ± 10 µM | EC50 ([2]; DU145, 48 h treatment, Table 4): 24 ± 2 µM | EC50 ([3]; A549, 1 h treatment, Table 2): > 100 µM | EC50 ([3]; A549, 48 h treatment, Table 4): > 100 µM | EC50 [4, 15]: 20 ± 1 µM | EC50 [4, 16]: 21 ± 1 µM | EC50 ([5]; PC-3, 1 h treatment, Table 2): > 100 µM | EC50 ([5]; PC-3, 48 h treatment, Table 4): 40 ± 7 µM | EC50 [6, 17]: 67 ± 27 µM | EC50 [6, 18]: 26 ± 1 µM | EC50 [7, 19]: > 100 µM | EC50 [7, 20]: > 100 µM | EC50 ([8]; MCF-7, 1 h treatment, Table 2): > 100 µM | EC50 ([8]; MCF-7, 48 h treatment, Table 4): > 100 µM | EC50 [9, 21]: 19 ± 5 µM | EC50 [9, 22]: 23 ± 2 µM | EC50 ([10]; H520, 1 h treatment, Table 2): > 100 µM | EC50 ([10]; H520, 48 h treatment, Table 4): 30 ± 2 µM
